Assays:
CF II (hClp1-hPcf11) [1] = molecular target: T1, CF II (hClp1-hPcf11) (Homo sapiens, UniProt Q92989); assay: […]'-dATP titration in reconstituted pre-mRNA cleavage, half-maximal activation; assay type: biochemical
CF II (hClp1-hPcf11) [2] = molecular target: CF II (hClp1-hPcf11) (Homo sapiens, UniProt Q92989, R288A/R293K); assay: biochemical
CF II (hClp1-hPcf11) [3] = molecular target: CF II (hClp1-hPcf11) (Homo sapiens, UniProt Q92989, E22Q); assay: biochemical
CF II (hClp1-hPcf11) [4] = molecular target: CF II (hClp1-hPcf11) (Homo sapiens, UniProt Q92989, E22A); assay: biochemical
Chain of CF II (hClp1-hPcf11) (Homo sapiens, UniProt Q92989, E22A) (Q92989 whole entry E22A): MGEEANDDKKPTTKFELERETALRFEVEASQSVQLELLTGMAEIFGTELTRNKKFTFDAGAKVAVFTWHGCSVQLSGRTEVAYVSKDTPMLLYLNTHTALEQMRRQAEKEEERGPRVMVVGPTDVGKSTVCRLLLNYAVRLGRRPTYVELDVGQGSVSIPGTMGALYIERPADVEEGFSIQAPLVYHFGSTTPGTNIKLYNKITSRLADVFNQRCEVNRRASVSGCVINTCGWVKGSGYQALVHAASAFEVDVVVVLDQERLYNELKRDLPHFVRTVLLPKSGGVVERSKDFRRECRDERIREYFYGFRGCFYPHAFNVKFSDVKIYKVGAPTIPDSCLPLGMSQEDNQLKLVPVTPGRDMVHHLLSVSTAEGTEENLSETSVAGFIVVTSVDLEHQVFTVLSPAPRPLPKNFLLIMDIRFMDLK
Chain of CF II (hClp1-hPcf11) (Homo sapiens, UniProt Q92989, E22A) (O94913 2-1555 partner): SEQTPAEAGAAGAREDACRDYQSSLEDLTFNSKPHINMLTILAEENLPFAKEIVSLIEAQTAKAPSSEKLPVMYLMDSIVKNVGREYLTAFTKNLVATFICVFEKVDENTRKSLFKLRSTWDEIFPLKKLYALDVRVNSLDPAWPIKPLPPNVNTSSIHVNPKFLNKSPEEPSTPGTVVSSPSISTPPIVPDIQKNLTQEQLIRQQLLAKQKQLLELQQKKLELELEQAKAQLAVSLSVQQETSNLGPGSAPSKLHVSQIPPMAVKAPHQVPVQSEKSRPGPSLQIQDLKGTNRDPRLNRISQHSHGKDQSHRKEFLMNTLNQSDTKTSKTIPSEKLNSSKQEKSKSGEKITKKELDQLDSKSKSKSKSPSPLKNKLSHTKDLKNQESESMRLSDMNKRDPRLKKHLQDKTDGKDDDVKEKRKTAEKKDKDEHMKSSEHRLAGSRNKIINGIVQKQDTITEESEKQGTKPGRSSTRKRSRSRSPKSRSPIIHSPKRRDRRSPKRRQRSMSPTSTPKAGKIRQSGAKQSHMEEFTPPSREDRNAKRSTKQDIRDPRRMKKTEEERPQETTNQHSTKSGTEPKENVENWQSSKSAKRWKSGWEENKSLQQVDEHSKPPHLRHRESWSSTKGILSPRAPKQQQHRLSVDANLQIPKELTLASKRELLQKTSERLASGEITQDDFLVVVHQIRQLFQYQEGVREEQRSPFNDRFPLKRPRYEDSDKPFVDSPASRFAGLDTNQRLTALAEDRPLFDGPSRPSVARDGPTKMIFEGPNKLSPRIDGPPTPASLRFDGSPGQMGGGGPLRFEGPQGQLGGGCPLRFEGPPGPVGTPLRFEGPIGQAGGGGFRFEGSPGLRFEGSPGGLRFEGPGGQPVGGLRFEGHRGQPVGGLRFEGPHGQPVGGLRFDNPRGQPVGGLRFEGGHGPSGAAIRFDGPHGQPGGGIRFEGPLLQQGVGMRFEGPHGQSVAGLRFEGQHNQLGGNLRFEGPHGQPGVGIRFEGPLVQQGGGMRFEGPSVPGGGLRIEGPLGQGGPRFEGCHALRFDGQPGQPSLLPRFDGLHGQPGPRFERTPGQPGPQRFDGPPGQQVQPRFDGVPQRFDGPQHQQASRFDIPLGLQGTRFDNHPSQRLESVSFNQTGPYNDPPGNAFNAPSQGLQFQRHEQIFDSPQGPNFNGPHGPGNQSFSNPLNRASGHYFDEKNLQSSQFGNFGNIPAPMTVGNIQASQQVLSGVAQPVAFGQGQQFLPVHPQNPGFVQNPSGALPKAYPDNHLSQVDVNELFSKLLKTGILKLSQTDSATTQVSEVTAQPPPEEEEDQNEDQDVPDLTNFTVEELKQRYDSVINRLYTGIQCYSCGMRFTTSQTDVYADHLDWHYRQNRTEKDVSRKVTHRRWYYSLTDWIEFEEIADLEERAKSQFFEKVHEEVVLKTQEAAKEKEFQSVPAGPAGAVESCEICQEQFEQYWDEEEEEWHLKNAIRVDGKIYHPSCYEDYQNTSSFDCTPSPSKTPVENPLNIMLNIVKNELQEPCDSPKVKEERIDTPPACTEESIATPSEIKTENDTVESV

CF II (hClp1-hPcf11) [5] = molecular target: T1, CF II (hClp1-hPcf11); assay: biochemical

T1 sequence (Q92989 whole entry): as the sequence (Q92989 whole entry E22A) above, with A22E counted along it
T1 sequence (O94913 2-1555 partner): as the sequence (O94913 2-1555 partner) above
Chain of CF II (hClp1-hPcf11) (Homo sapiens, UniProt Q92989, E22Q) (Q92989 whole entry E22Q): as the sequence (Q92989 whole entry E22A) above, with A22Q counted along it
Chain of CF II (hClp1-hPcf11) (Homo sapiens, UniProt Q92989, E22Q) (O94913 2-1555 partner): as the sequence (O94913 2-1555 partner) above
Chain of CF II (hClp1-hPcf11) (Homo sapiens, UniProt Q92989, R288A/R293K) (Q92989 whole entry R288A/R293K): as the sequence (Q92989 whole entry E22A) above, with A22E, R288A, R293K counted along it
Chain of CF II (hClp1-hPcf11) (Homo sapiens, UniProt Q92989, R288A/R293K) (O94913 2-1555 partner): as the sequence (O94913 2-1555 partner) above

EC50 (CF II (hClp1-hPcf11) [1]) [µM] | EC50 (CF II (hClp1-hPcf11) [2]) [µM] | EC50 (CF II (hClp1-hPcf11) [3]) [µM] | EC50 (CF II (hClp1-hPcf11) [4]) [µM] | EC50 (CF II (hClp1-hPcf11) [5]) [µM] | Compound
46.3 ± 7.4 |  |  |  |  | Nc1ncnc2c1ncn2[C@@H]1O[C@H](COP(=O)(O)OP(=O)(O)OP(=O)(O)O)C[C@H]1O [3'-dATP]
 | 5.7 ± 3.4 | 95.9 ± 19.8 | 10.9 ± 2.7 | 0.5 ± 0.1 | Nc1ncnc2c1ncn2[C@@H]1O[C@H](COP(=O)(O)OP(=O)(O)OP(=O)(O)O)[C@@H](O)[C@H]1O [ATP]

— PMC8887130 (Genes & Development, 2022)
